Assay results as given in the SangsterLogP compilation.

Experiment: method code SF, from Hansch, C. & Leo, A. (1987). Log P database [Dataset]. Pomona College Medicinal Chemistry Project.
Conditions: not given

SMILES	logP
CC(C)c1cccc(C(C)C)c1N	3.18
COc1ccc2cnccc2c1	2.22
O=S1(=O)NC(C(F)(F)F)=Nc2cc(Cl)ccc21	1.65
CCCNP(=O)(OC)Oc1cc(Cl)c(Cl)cc1Cl (stereo unspecified)	3.7
O=C(CNC(=O)c1ccccc1)Oc1cccc(F)c1	2.58
Nc1ccc2ccccc2c1S(=O)(=O)O	-1.16
CN(N=O)C(=O)N[C@H]1C(O)O[C@H](CO)[C@@H](O)[C@@H]1O (stereo partly specified)	-1.45
CCCCCCCCC1OC(=O)c2ccccc21 (stereo unspecified)	3.94
CNC(=O)ON=CC(C)(C)[N+](=O)[O-]	0.36
COP(N)(=O)Oc1cc(Cl)c(Cl)cc1Cl (stereo unspecified)	2.53
COc1cccc(C)c1	2.66
CNC(=S)NCc1ccccc1	1.35
CC1(C)OCCO1	0.46
CC(=O)Nc1ccccc1[N+](=O)[O-]	1.05
O=C1CCN(c2ccccc2)N1	0.89
N#CN=[N+]([O-])c1cccc(C#N)c1	1.15
CC(=O)OC1OC(C)C(OC(C)=O)C(OC(C)=O)C1NC(=O)N(CCCl)N=O (stereo unspecified)	1.32
NC(=S)NN=Cc1cccc(O)c1	1.61
CON(C)C(=O)Nc1cccc(C#N)c1	1.33
CC(=O)N(c1ccccc1)c1ccccc1	2.05
COc1cccc(OC)c1	2.21
OC1OC[C@H](O)[C@H](O)[C@H]1O (stereo partly specified)	-3.02
Cn1ccc(=O)cc1	-1.22

SMILES	logP
CCCCCC(C)O (stereo unspecified)	2.31
CC1=NS(=O)(=O)c2ccc(C(F)(F)F)cc2N1	1.59
O=C(C(=O)c1ccccc1)c1ccccc1	3.38
C=C(C)C	2.34
CCCC(=O)Nc1ccccc1	2.05
c1ccc(-c2nc3ccccc3s2)cc1	4.26
CC(=O)Oc1ccc(N=C2C=CC(=O)C=C2)cc1	1.43
O=C1CCCN1CCOc1ccc([N+](=O)[O-])cc1	1.33
CCOc1cn[nH]c1	0.8
CC1=Nc2ccc(C)cc2S(=O)(=O)N1	0.81
CCOC(=O)C(=Cc1cccc(Cl)c1)C(C)=O	2.97
CCNC(=O)Nc1ccccc1	1.64
COc1ccc([N+]([O-])=NC#N)cc1	2.15
CCCCC1OC(=O)c2cc(Cl)ccc21 (stereo unspecified)	3.53
CCOC(=O)/C(=C/c1c(Cl)cccc1Cl)C(C)=O	2.86
OC(c1ccccc1)(c1ccccc1)c1ccccc1	3.68
Clc1ccc2[nH]c(CCCc3nc4cc(Cl)ccc4[nH]3)nc2c1	1.88
Nc1ncnc2c1ncn2[C@@H]1O[C@H](CO)[C@@H](O)[C@@H]1O	-1.11
CC(=O)NC1CCSC1=O (stereo unspecified)	-0.35
O=[N+]([O-])c1ccc(C=Cc2nccn2Cc2ccccc2)o1	1.55
O=c1[nH]cc(Br)c(=O)[nH]1	-0.21
Cc1cc(COc2ccccc2C(C)C)c(O)c(C(=O)O)c1	4.91
NC(=O)Nc1cccc(NC(N)=O)c1	0.58

SMILES	logP
c1ccc(CSc2nnc[nH]2)cc1	1.45
CCCCNC(=O)n1c(NC(=O)OC)nc2ccccc21	2.42
CCCCSc1ccccc1OC(=O)NC	2.98
O=C1OC(O)c2ccccc21 (stereo unspecified)	0.57
CC(=O)C(=Cc1ccccc1C)C(C)=O	1.98
CC(C)CCC(=O)c1ccoc1	2.76
CS(=O)(=O)OCCCCOS(C)(=O)=O	-0.52
CCc1ccccc1OC(C)=O	2.42
c1ccc2[nH]c(CCCCc3nc4ccccc4[nH]3)nc2c1	1.59
Cn1nnnc1SCc1ccccc1	1.63
Cn1ccccc1=O	-0.23
CC1=Nc2cc(C)ccc2S(=O)(=O)N1	0.74
COc1ccc(OC(=O)CNC(=O)c2ccccc2)cc1	2.28
O=C(O)CCS	0.43
Cc1cccc(OC(=O)N(C)C)c1	2.05
CCOP(=O)(OCC)Oc1ccc(SC)cc1Cl	3.05
Cc1oc2ccccc2c(=O)c1C	2.31
COC(=O)CCC(=O)N(C)c1ccc(S(=O)(=O)N(C)C)cc1	0.43
COc1ccc(C(N)=O)cc1	0.86
Nc1c2ccccc2nc2ccccc12	2.74
CC(=O)Oc1ccc([N+](=O)[O-])cc1	1.5
C=C(Cl)Cl	2.13
O=C(O)CSCc1ccccc1	2.1

SMILES	logP
CC(=O)N[C@@H]1CC(=O)N(c2ccc(Cl)cc2)C1=O	0.75
CCCCN(CCCC)C(=O)COc1ccccc1	3.23
CCc1cccs1	2.87
CC(C)C1OC(=O)c2ccccc21 (stereo unspecified)	2.1
CN(c1ccccc1)S(C)(=O)=O	1.02
O=[N+]([O-])CCc1ccccc1	2.08
CN(C(=O)CCS(C)=O)c1ccc(S(=O)(=O)N(C)C)cc1 (stereo unspecified)	-0.67
CCOP(=S)(OCC)SCn1nnc2ccccc2c1=O	3.4
CC(=O)Oc1cccc([N+](=O)[O-])c1	1.82
CN(C)CCc1ccsc1	1.94
Cc1cccc(OC(=O)CNC(=O)c2ccccc2)c1	2.72
Cc1csc(N=C(N)N)n1	1.24
CCCCSC(C)(C)C(N)=O	1.81
O=C(O)CONC(=O)c1ccccc1	-0.27
CCOC(=O)C(=Cc1ccccc1)C(C)=O	2.21
COc1cccc(OC(=O)N(C)C)c1	1.6
CCOC(=O)C(=Cc1ccc(OC)cc1)C(=O)OCC	3.28
O=C(O)CS	0.09
CCCCC1OC(=O)c2cc(N(CCO)CCO)ccc21 (stereo unspecified)	1.34
Cc1cccc(NC(=O)c2ccccc2)c1	2.75
CN(C)C(=O)Oc1ccccc1	1.56
Cc1ccc2c(=O)[nH]c(=O)[nH]c2c1	0.55
CC(=O)c1ccco1	0.52

SMILES	logP
CN(C)C(=O)Nc1ccc(C(C)(C)C)cc1	3.1
CCNC(=O)CBr	0.34
CCCCO[N+](=O)[O-]	2.15
CCOC(=O)NC	0.34
NC(=O)c1ccccc1F	0.64
CN(C(=O)CCCl)c1ccc(S(=O)(=O)N(C)C)cc1	0.98
c1cnc2[nH]ccc2c1	1.82
Cc1nnc(SCc2ccccc2)s1	2.35
CCOC(=O)Cn1ccnc1C=Cc1ccc([N+](=O)[O-])o1	1.27
O=C(O)CNc1ccccc1	0.62
O=[N+]([O-])c1ccc2[nH]c(CCCCCc3nc4cc([N+](=O)[O-])ccc4[nH]3)nc2c1	1.97
CCCCCCC1OC(=O)c2ccccc21 (stereo unspecified)	3.55
CC(=O)c1ccc[nH]1	0.93
FC(Cl)Cl	1.55
CC(=O)C(=Cc1ccccc1)C(C)=O	1.59
Cc1ccc(Cl)cc1C	3.82
NC(=O)CI	-0.19
O=c1[nH]cc(I)c(=O)[nH]1	0.04
Cc1ccc(C(=O)c2ccncc2)cc1	2.51
CC(=O)Nc1ccccc1NC(C)=O	-0.03
Oc1ccccc1/C=N/c1ccccc1	3.09
Cc1ccccn1	1.11
FC(F)(F)Oc1ccccc1	3.17

SMILES	logP
CCCCCCCCOC(=O)c1cccc(C(=O)OCCCCCCCC)c1	5.55
CN(C(=O)CCBr)c1ccc(S(=O)(=O)N(C)C)cc1	1.13
N#CN=[N+]([O-])c1ccccc1	1.87
CN(C)CCCc1ccco1	2.08
CCOC(=O)C(C#N)=Cc1ccccc1	2.43
CCCOP(=O)(OCCC)OCCC	1.87
CN(C)/N=N/c1ccc(C#N)cc1	2.35
COP(=O)(CC(C)=O)OC	0.86
CCCc1ccncc1	2.1
C=CCc1cccc2c(=O)c(C)c(-c3ccccc3)oc12	4.67
CSc1nccc(O)n1	0.22
CC(=O)Oc1ccccc1C(C)C	2.78
COC(=O)NS(=O)(=O)c1ccc(N)cc1	-0.27
c1cn[nH]n1	-0.29
O=c1n[n+]([O-])ccn1Cc1ccccc1	0.19
N#CN=[N+]([O-])c1cccc(F)c1	1.85
FC(F)(F)Sc1ccccc1	3.57
CCOP(=S)(OCC)SCS(=O)C(C)(C)C (stereo unspecified)	2.21

Same assay, conditions: pH 0.7

SMILES	logD
O=C1CC(C(=O)O)Oc2ccccc21 (stereo unspecified)	1.26

Same assay, conditions: pH 1.0

SMILES	logD
COc1ccccc1OCC(=O)O	0.98
O=C(O)C(CO)c1ccccc1 (stereo unspecified)	0.77
O=C(O)c1ccccc1-c1ccccc1	2.89

Same assay, conditions: pH 1.4

SMILES	logD
Oc1c(Br)cc(Br)c(O)c1Br	4.37

Same assay, conditions: pH 3.0

SMILES	logD
CC1=C(C(=O)O)N2C(=O)[C@@H](NC(=O)Cc3cccs3)[C@H]2SC1	0.61

Same assay, conditions: pH 6.2

SMILES	logD
Nc1nc(CON=CC(=O)NC2C(=O)N3C(C(=O)OC4OC(=O)c5ccccc54)=CCSC23)cs1 (stereo unspecified)	1.28

Same assay, conditions: pH 7.0

SMILES	logD
Brc1ccc2ncccc2c1	2.83
CN1CC(C)(C)C(=O)c2ccccc21	2.72
CC(=O)c1ccc(C(C)=O)cc1	1.34
FC(F)(F)c1ccc2cccnc2c1	3.02

Same assay, conditions: pH 7.4

SMILES	logD
C=CCn1c(=O)c(N(C)C)c(C)n(-c2ccccc2)c1=O	1.98
CO[C@H]1O[C@H](CNC(=O)N(C)N=O)[C@@H](O)[C@H](O)[C@H]1O	-1.57
COC1OCC(O)C(NC(=O)N(C)N=O)C1O (stereo unspecified)	-1.08
CC(O)C(C)(C)C(O)C(=O)OCC1=CC[N+]2([O-])CCC(O)C12 (stereo unspecified)	-1.52
Cc1c(N(C)C)c(=O)n(C)c(=O)n1-c1ccccc1	1.19
CC(C)COCC1CNc2nc(N)[nH]c(=O)c2N1 (stereo unspecified)	0.45
CC(=O)Nc1ccccc1C(C)C	1.71

Same assay, conditions: pH 8.0

SMILES	logD
Cn1c(N)cc2ccccc21	1.72

Same assay, conditions: pH 8.7

SMILES	logD
CN1CCC(CN2c3ccccc3Sc3ccccc32)C1 (stereo unspecified)	3.87

Same assay, conditions: pH 10.8

SMILES	logD
CNC(=S)NCCSCc1nc[nH]c1C	0.59

Same assay, conditions: pH 11.0

SMILES	logD
CNCc1cccnc1	0.39
c1cncc(CCN2CCCC2)c1	1.34
N=c1ccn2c(n1)OC1C(O)C(CO)OC12 (stereo unspecified)	-2.37

Same assay, conditions: pH 12.0

SMILES	logD
CCC[C@@H]1C[C@@H](C(=O)N[C@@H]([C@H]2O[C@H](SC)[C@H](O)[C@@H](O)[C@H]2O)[C@@H](C)O)N(CC)C1	1.02

Same assay, conditions: pH 13.0

SMILES	logD
COc1ccc(OC)c(Cc2cnc3nc(N)nc(N)c3c2C)c1	2.13
CNCc1ccccc1	1.52
CC1(C)N=C(N)N=C(N)N1c1ccc(OCC(=O)N2CCOCC2)cc1	-1.18
